Test results reported in patent publication US20190225643A1, “NOVEL NUCLEOSIDE ANALOGS AND USE THEREOF IN THERAPEUTIC TREATMENT” (CORNELL UNIVERSITY, priority 2016, published 2019).

What was measured:
[1] = tested on: PA-Tu-8988T pancreatic adenocarcinoma cell line; type: cell-based, human
Method: (§1) Cell viability assays were performed by plating log-phase cells in RPMI complete media with 20% FBS at 1*10^5 cells/mL, with concentrations of 6-ETI or phospho-6-ETI ranging from 0.1 nM to 100 μM. ATP content at 24, 48 and 72 hours post-treatment was measured by the CellTiter-Glo kit (Promega, Madison, Wis.), or by Trypan blue assay as indicated. The LC50 for 6-ETI in each cell line was determined using online EC50 software at changbioscience.com or using GraphPad Prism to determine the LC50 for 6-ETI, phospho-6-ETI and nucleoside analogs in MM cell lines and primary MM patient samples.
Pancreatic adenocarcinoma PA-Tu-8988T cell line was kindly provided by Lewis Cantley's lab (Weill Cornell Medicine). […] of ADK in this cell line was achieved by transducing these cells with ADK shRNA Lentiviral Particles (Santa crux) and selecting the stable cell line using 2 μg/ml Puromycin.

[2] = tested on: DNA synthesis in U266 cells; experiment: Click-iT EdU DNA synthesis assay, MM cells; type: cell-based, human; conditions: 24 hrs
Method: BC3 and U266 cells were seeded at a density of 0.5 million cells/ml and treated with DMSO only, 1 μM or 1.0 μM 6-ETI for BC3 cells and 0.5 μM 6-ETI for U266 cells for 24 hrs. At 24 hrs post 6-ETI treatment, 0.5 million cells of each of the treated conditions were labeled with 10 μM of EdU for 2 hours then fixed for 30 min using 2% paraformaldehyde supplemented with 0.3M sucrose. Cells were then washed in PBS and perineabilized with 0.2% saponin, PBS with 1% BSA and 0.3M sucrose for 20 min at room temperature. During this incubation time, a click-iT cocktail mix containing, click iT reaction buffer, CuSO4, alexafluor488 and click iT reaction buffer additive was prepared according to the manufacturer's instructions. Cells were washed in PBS after permeabilization and the click-iT cocktail mix was added for 30 min at room temperature in the absence of light. To visualize DNA, cells were counterstained with Hoechst (1:1000) for another 30 min then washed and resuspended in PBS with 1% BSA. 20 μl of the resuspended cells were combined with 20 μl of mounting media Fluoromount-G (Southern biotech) and cells were mounted on Ibidi μ-slides. Cells were imaged using DeltaVision image restoration microscope (Rockefeller center).

[3] = tested on: IBL1, LY7 and BCKN1 cells; experiment: Viability assay at higher plating density; type: cell-based; conditions: 5*10^5 cells/mL versus original assay conditions
Method: as §1, with “Cell viability assays were performed by plating log-phase cells in RPMI complete media with 20% FBS at 1*10^5 cells/mL, with concentrations of 6-ETI or phospho-6-ETI ranging from 0.1 nM to 100 μM.” left out

[4] = tested on: colon (RKO, HCT116, DID1) and pancreatic (PA-TU-8988T) cancer cell lines; experiment: Viability of adenocarcinoma cell lines; type: cell-based
Method: as §1

[5] = tested on: MM cell lines JJN3, MM1S, U266 and CAG; experiment: CellTiter-Glo viability assay, MM cell lines; type: cell-based
Method: as §1

[6] = target: ADK (Homo sapiens, UniProt P55263); experiment: In vitro ADK kinase assay with HPLC/MS; type: biochemical; conditions: 37° C., 5-360 minutes
ADK, sequence (P55263 whole entry): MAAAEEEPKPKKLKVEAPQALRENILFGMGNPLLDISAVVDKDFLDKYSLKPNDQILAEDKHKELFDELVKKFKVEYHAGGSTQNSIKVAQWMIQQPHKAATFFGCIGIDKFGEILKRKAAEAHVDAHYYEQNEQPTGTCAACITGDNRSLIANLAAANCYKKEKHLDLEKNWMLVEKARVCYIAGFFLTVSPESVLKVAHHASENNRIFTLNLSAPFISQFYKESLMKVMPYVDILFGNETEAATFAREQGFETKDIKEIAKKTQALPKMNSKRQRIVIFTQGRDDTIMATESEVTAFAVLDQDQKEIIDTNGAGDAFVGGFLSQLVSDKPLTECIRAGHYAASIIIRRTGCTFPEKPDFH
Method: The ADK kinase assay kit was purchased from Novocib, France. ADK and ATP provided in the kit were premixed into provided kinase assay buffer. The reaction at 37° C. was started by addition of 6-ETI in DMSO at T=0, followed by quenching of 10 μL of the reaction by 30 μL acetonitrile in an eppendorf tube at 5, 10, 15, 30, 60, 120, 150, 180, and 360 minutes. The quenched reaction was briefly vortexed and centrifuged at ˜7000 g, following which the supernatant was transferred into a fresh tube and stored at 4° C. for HPLC/MS analysis. A control reaction was set up containing ADK, ATP, and Inosine, in order to generate a standard peak for IMP, while ADK, DTT, and ATP controls were generated by dissolving individual kit components in a 3:1 acetonitrile:dH2O solution.
LCMS separations were performed using a Waters ACQUITY UPLC system equipped with ACQUITY PDA (diode array), Waters Micromass SQD 2000 spectrometer, and a Waters ACQUITY BEH C18 column (1.7 μm, 2.1×100 mm). The solvent system consisted of 0.1% Formic Acid in Water (Solvent A) and 0.1% Formic Acid in Acetonitrile (Solvent B). Flow was set to 0.3 mL/min, and a gradient of 5-95% Solvent B was applied over a period of 3 minutes. Total runtime was 4 minutes. Eluents were detected using a PDA at a wavelength of 254 nm. Mass data was obtained in both positive and negative electrospray mode, at a cone voltage of 30V.

[7] = tested on: normal plasma cells (CD19-, CD138+) from human tonsils; experiment: Toxicity on normal primary tonsillar lymphocytes; type: cell-based; conditions: 1 μM and 10 μM, 24 hours
Method: Primary human tonsil specimens were obtained from the Weill Cornell/New York Presbyterian Institutional Biobank. Lymphocytes were isolated from human tonsil tissue by dissection and maceration in RPMI media. Lymphocyte-containing media was passed through a 70 μm filter and pelleted at 400 g for 7 minutes. RBC were lysed for 5 minutes in RBC lysing solution (0.15M ammonium chloride, 10 mM potassium bicarbonate, […]). After dilution to 50 ml with RPMI, lymphocytes were filtered through a […] filter, counted and pelleted a second time. Total B cells were isolated using magnetic cell sorting according to manufacturer instructions (Miltenyi Cat#130-091-151). Cells were plated at 2 million cells/ml in RPMI with 20% FBS and 100 μg/ml Primocin (Invivogen) and laid over gamma-irradiated CDW32 feeder cells. Cells were then treated with DMSO, 1 μM or 10 μM 6-ETI for 24 hrs. […] Data was acquired on a BD LSR2 Flow Cytometer and analyzed using FlowJo software. The frequency of plasma cells was assessed based on singlet-gated cells expressing CD138.

For `CCSc1ncnc2c1ncn2[C@@H]1O[C@H](CO)C(O)[C@@H]1O` (stereo partly shown) [Compound 6-ETI, 6-ethylthioinosine], which “change in LC50 on ADK knockdown” value [1] is on record?
Its value is “a log increase in LC50”.

What about the “DNA synthesis (EdU incorporation)” value [2] of the same compound?
Its value is “suppressed DNA synthesis”.

And the “LC50 change at higher cell density” value [3]?
Its value is “decreased strikingly”.

What about the LC50 [4] of the same compound?
The LC50 was “nanomolar range”.

And the LC50 [5]?
Its LC50 is “high nM range”.

What about the “phosphorylation by ADK” value [6] of the same compound?
Its value is “ADK phosphorylates 6-ETI directly”.

What about the “total number or proportion of normal plasma cells” value [7] of the same compound?
The value was “did not find a decrease in the total number or proportion of plasma cells”.
